Test system: 3D InSight™ Human Islet Microtissues
Assay: Glucose-stimulated insulin secretion (GSIS) after 13 days of glucolipotoxicity (GLTX) induced islet injury
Type: cell-based
Settings: GSIS at 16.7 mM glucose, vs GLTX group

Compound	glucose-stimulated insulin secretion (GSIS) (FIG. 3, long-term (13 days) treatment with 10 μM verapamil alone in glucolipotox medium)	glucose-stimulated insulin secretion (GSIS) (FIG. 2, long-term (13 days) treatment with 1 μM semaglutide alone in glucolipotox medium)
COc1ccc(CCN(C)CCCC(C#N)(c2ccc(OC)c(OC)c2)C(C)C)cc1OC (centres unmarked) [verapamil]	has a positive influence on GSIS	
semaglutide		does not improve the GSIS
